Experimental data published in US8217032B2, “Selective estrogen receptor modulators for the treatment of vasomotor symptoms” (Eli Lilly and Company, priority 2004, dated 2012).

What was measured:
[1] = test system: ovariectomized Sprague-Dawley rats; test: Morphine withdrawal, rat hot flash model; type: in vivo; conditions: LRL data
Description: Morphine withdrawal, rat hot flash model: Simpkins et al. (1983) first published morphine withdrawal in the rat as a putative model for hot flashes, based on observations highlighting the similarity of symptoms of gonadal steroid withdrawal to those of opioid withdrawal. Although less severe, the signs and symptoms associated with clinical hot flashes, or estrogen deficiency, in the rat parallel those produced by naloxone-precipitated withdrawal in morphine dependent rats, including: 1) an increase in tail skin temperature, 2) a surge in luteinizing hormone and 3) an increase in heart rate. Each of these responses are associated with an increase in sympathetic outflow, which is a current mechanistic hypothesis for hot flashes. […] A key feature of animal models, is that they mimic the treatment efficacy observed with the human disease. The morphine withdrawal hot flash model, either in its originally described form, or with the modifications described herein, is responsive to agents typically used in the treatment of human hot flashes. This includes various forms of estrogen (Simpkins et al., 1983; LRL data), clonidine (LRL data), tibolone (LRL data), and medroxyprogesterone (LRL data). Furthermore, the model is sensitive to agents known to be associated with the induction of hot flashes in postmenopausal women.
A modification of the original procedure of Simpkins et al. (1983) is used which employs ovariectomized Sprague-Dawley rats. […]
On day 21 post-ovariectomy, animals are given […] (80 mg/kg; IM) 2-hours after final administration of the test compound. […] Temperature monitoring is initiated 30 minutes after administration of […] and is recorded every 15 seconds for a 1-hr period. […] A sharp rise in tail skin temperature typically occurs within 5 minutes post-naloxone injection, and two quantitative endpoints are made: 1) tail skin temperature at 15 min post-naloxone, and 2) area under the temperature response curve for the 45-min post-naloxone measurement period. […] Uteri are also removed at this time, and wet weight recorded.

[2] = Phase III clinical studies; cited from earlier work

Molecule: Clc1cccc(Cl)c1N=C1NCCN1 [clonidine]
- responsiveness of the morphine withdrawal hot flash model to agents typically used in the treatment of human hot flashes [1]: responsive

Molecule: O=C(c1ccc(OCCN2CCCCC2)cc1)c1c(-c2ccc(O)cc2)sc2cc(O)ccc12 [raloxifene]
- incidence of hot flash compared to placebo [2]: slight increased incidence of hot flash

Molecule: C#C[C@]1(O)CC[C@H]2[C@@H]3[C@H](C)CC4=C(CCC(=O)C4)[C@H]3CC[C@@]21C [tibolone]
- responsiveness of the morphine withdrawal hot flash model to agents typically used in the treatment of human hot flashes [1]: responsive

Molecule: medroxyprogesterone
- responsiveness of the morphine withdrawal hot flash model to agents typically used in the treatment of human hot flashes [1]: responsive
